Experimental data from PubChem BioAssay (NCI).
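Compound exposure: 48 hours, 5 concentrations, 96-well plates. GI50 = concentration required for 50% inhibition of growth. TGI: total growth inhibition.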

Assays:
Test in all cases: NCI tumour cell line growth inhibition, 48 h
SNB-75 CNS = system: SNB-75 CNS
OVCAR-8 ovarian = system: OVCAR-8 ovarian
BT-549 breast = system: BT-549 breast
786-0 renal = system: 786-0 renal
EKVX NSCLC = system: EKVX NSCLC
HOP-62 NSCLC = system: HOP-62 NSCLC
UO-31 renal = system: UO-31 renal
M14 melanoma = system: M14 melanoma
SK-MEL-2 melanoma = system: SK-MEL-2 melanoma
MDA-MB-231 breast = system: MDA-MB-231 breast
MCF7 breast = system: MCF7 breast
SF-268 CNS = system: SF-268 CNS
HS 578T breast = system: HS 578T breast
DU-145 prostate = system: DU-145 prostate
NCI-H23 lung = system: NCI-H23 lung
LOX IMVI melanoma = system: LOX IMVI melanoma
MDA-MB-435 = system: MDA-MB-435
NCI-H226 lung = system: NCI-H226 lung
OVCAR-5 ovarian = system: OVCAR-5 ovarian
SNB-19 CNS = system: SNB-19 CNS
NCI/ADR-RES ovarian = system: NCI/ADR-RES ovarian
SR leukemia = system: SR leukemia
CAKI-1 renal = system: CAKI-1 renal
OVCAR-3 ovarian = system: OVCAR-3 ovarian
UACC-257 melanoma = system: UACC-257 melanoma
SK-MEL-5 melanoma = system: SK-MEL-5 melanoma
COLO 205 colon = system: COLO 205 colon
HOP-92 NSCLC = system: HOP-92 NSCLC
U251 CNS = system: U251 CNS
PC-3 prostate = system: PC-3 prostate
KM12 colon = system: KM12 colon
MALME-3M melanoma = system: MALME-3M melanoma
A498 renal = system: A498 renal
IGROV1 ovarian = system: IGROV1 ovarian
A549 NSCLC = system: A549 NSCLC
HCT-116 colon = system: HCT-116 colon
NCI-H522 lung = system: NCI-H522 lung
T-47D breast = system: T-47D breast
HCC-2998 colon = system: HCC-2998 colon
MOLT-4 leukemia = system: MOLT-4 leukemia
ACHN renal = system: ACHN renal
OVCAR-4 ovarian = system: OVCAR-4 ovarian
HL-60(TB) leukemia = system: HL-60(TB) leukemia
SN12C renal = system: SN12C renal
TK-10 renal = system: TK-10 renal
SW-620 colon = system: SW-620 colon
CCRF-CEM leukemia = system: CCRF-CEM leukemia
SF-539 CNS = system: SF-539 CNS
UACC-62 melanoma = system: UACC-62 melanoma
K-562 leukemia = system: K-562 leukemia
RPMI-8226 leukemia = system: RPMI-8226 leukemia
NCI-H460 lung = system: NCI-H460 lung
SK-MEL-28 melanoma = system: SK-MEL-28 melanoma
HCT-15 colon = system: HCT-15 colon
SK-OV-3 ovarian = system: SK-OV-3 ovarian
SF-295 CNS = system: SF-295 CNS
HT29 colon = system: HT29 colon

`CCOC(=O)[C@@H](C)C[C@H](Cc1ccccc1)NC(=O)c1csc([C@@H](C[C@H](C(C)C)N(C)C(=O)[C@@H](NC(=O)[C@H]2CCCCN2C)C(C)(C)CC)OC(C)=O)n1` showed a GI50 (SNB-75 CNS) of under 1.67 nM, a TGI (SNB-75 CNS) of 13900 nM and a GI50 (OVCAR-8 ovarian) of 2.31 nM. For the same compound, the TGI (OVCAR-8 ovarian) was over 16700 nM, the GI50 (BT-549 breast) was under 1.67 nM and the TGI (BT-549 breast) was 107 nM. The GI50 (786-0 renal) was under 1.67 nM, the TGI (786-0 renal) was 4860 nM and the GI50 (EKVX NSCLC) was 2.32 nM. For the same compound, the TGI (EKVX NSCLC) was over 16700 nM, the GI50 (HOP-62 NSCLC) was 1.78 nM and the TGI (HOP-62 NSCLC) was over 16700 nM. It also gave a GI50 (UO-31 renal) of 13.2 nM, a TGI (UO-31 renal) of 14100 nM and a GI50 (M14 melanoma) of under 1.67 nM. It also gave a TGI (M14 melanoma) of 1800 nM, a GI50 (SK-MEL-2 melanoma) of under 1.67 nM and a TGI (SK-MEL-2 melanoma) of over 16700 nM. The GI50 (MDA-MB-231 breast) was 2.83 nM, the TGI (MDA-MB-231 breast) was 1180 nM and the GI50 (MCF7 breast) was under 1.67 nM. It also gave a TGI (MCF7 breast) of over 16700 nM, a GI50 (SF-268 CNS) of 2.78 nM and a TGI (SF-268 CNS) of over 12800 nM. The GI50 (HS 578T breast) was under 1.67 nM, the TGI (HS 578T breast) was 2170 nM and the GI50 (DU-145 prostate) was under 1.67 nM. The GI50 (NCI-H23 lung) was 2.51 nM, the TGI (NCI-H23 lung) was over 16700 nM and the GI50 (LOX IMVI melanoma) was under 1.67 nM. It also gave a TGI (LOX IMVI melanoma) of 6080 nM, a GI50 (MDA-MB-435) of under 1.67 nM and a TGI (MDA-MB-435) of under 1.67 nM. It also gave a GI50 (NCI-H226 lung) of under 1.67 nM, a TGI (NCI-H226 lung) of 33.6 nM and a GI50 (OVCAR-5 ovarian) of 3.7 nM. For the same compound, the TGI (OVCAR-5 ovarian) was over 16700 nM, the GI50 (SNB-19 CNS) was under 1.67 nM and the TGI (SNB-19 CNS) was over 16700 nM. It also gave a GI50 (NCI/ADR-RES ovarian) of 8.91 nM, a GI50 (SR leukemia) of under 1.67 nM and a TGI (SR leukemia) of 3390 nM. The GI50 (CAKI-1 renal) was 1.76 nM, the TGI (CAKI-1 renal) was over 9400 nM and the GI50 (OVCAR-3 ovarian) was under 1.67 nM. For the same compound, the GI50 (UACC-257 melanoma) was 44.2 nM, the TGI (UACC-257 melanoma) was over 16700 nM and the GI50 (SK-MEL-5 melanoma) was under 1.67 nM. For the same compound, the TGI (SK-MEL-5 melanoma) was 29.4 nM, the GI50 (COLO 205 colon) was under 1.67 nM and the TGI (COLO 205 colon) was 3 nM. The GI50 (HOP-92 NSCLC) was 1.9 nM, the TGI (HOP-92 NSCLC) was 5690 nM and the GI50 (U251 CNS) was under 1.67 nM. For the same compound, the TGI (U251 CNS) was over 7640 nM, the GI50 (PC-3 prostate) was under 1.67 nM and the TGI (PC-3 prostate) was over 16700 nM. The GI50 (KM12 colon) was under 1.67 nM, the TGI (KM12 colon) was over 16700 nM and the GI50 (MALME-3M melanoma) was under 1.67 nM. The TGI (MALME-3M melanoma) was 3680 nM, the GI50 (A498 renal) was under 1.67 nM and the TGI (A498 renal) was 11.4 nM. It also gave a GI50 (IGROV1 ovarian) of 2.1 nM, a TGI (IGROV1 ovarian) of over 16700 nM and a GI50 (A549 NSCLC) of under 1.67 nM. For the same compound, the TGI (A549 NSCLC) was over 16700 nM, the GI50 (HCT-116 colon) was under 1.67 nM and the TGI (HCT-116 colon) was 3020 nM. It also gave a GI50 (NCI-H522 lung) of under 1.67 nM, a TGI (NCI-H522 lung) of 39.7 nM and a GI50 (T-47D breast) of under 1.67 nM. It also gave a TGI (T-47D breast) of over 16700 nM, a GI50 (HCC-2998 colon) of under 1.67 nM and a TGI (HCC-2998 colon) of 2770 nM. It also gave a GI50 (MOLT-4 leukemia) of 3.38 nM, a TGI (MOLT-4 leukemia) of over 13100 nM and a GI50 (ACHN renal) of 2.25 nM. For the same compound, the TGI (ACHN renal) was over 14100 nM, the GI50 (OVCAR-4 ovarian) was 14.6 nM and the TGI (OVCAR-4 ovarian) was over 16700 nM. The GI50 (HL-60(TB) leukemia) was under 1.67 nM, the TGI (HL-60(TB) leukemia) was 3.4 nM and the GI50 (SN12C renal) was 2.47 nM. It also gave a TGI (SN12C renal) of 5900 nM, a GI50 (TK-10 renal) of 41.8 nM and a TGI (TK-10 renal) of over 16700 nM. It also gave a GI50 (SW-620 colon) of under 1.67 nM, a TGI (SW-620 colon) of over 16700 nM and a GI50 (CCRF-CEM leukemia) of 2.46 nM. The TGI (CCRF-CEM leukemia) was over 8650 nM, the GI50 (SF-539 CNS) was 2.26 nM and the TGI (SF-539 CNS) was 7.91 nM. For the same compound, the GI50 (UACC-62 melanoma) was under 1.67 nM, the TGI (UACC-62 melanoma) was over 16700 nM and the GI50 (K-562 leukemia) was under 1.67 nM. For the same compound, the TGI (K-562 leukemia) was over 16700 nM, the GI50 (RPMI-8226 leukemia) was under 1.67 nM and the TGI (RPMI-8226 leukemia) was 4180 nM. For the same compound, the GI50 (NCI-H460 lung) was under 1.67 nM, the TGI (NCI-H460 lung) was over 12900 nM and the GI50 (SK-MEL-28 melanoma) was 1200 nM. The TGI (SK-MEL-28 melanoma) was over 16700 nM, the GI50 (HCT-15 colon) was under 1.67 nM and the TGI (HCT-15 colon) was over 5930 nM. The GI50 (SK-OV-3 ovarian) was under 1.67 nM, the TGI (SK-OV-3 ovarian) was over 16700 nM and the GI50 (SF-295 CNS) was under 1.67 nM. The TGI (SF-295 CNS) was 1870 nM, the GI50 (HT29 colon) was under 1.67 nM and the TGI (HT29 colon) was over 6790 nM.
